Data from US7404975B2, “Moringa crude extracts and their derived fractions with antifungal activities” (Academia Sinica, priority 2006, dated 2008).

System: Epidermophyton floccosum
Experiment: Broth dilution anti-fungal susceptibility assay (NCCLS M38-A), MIC
Type: cell-based
Description: M. oleifera was grown and collected from Taichung, Taiwan. The seeds were de-hulled and the seed kernels dried at 100° C. for 24 h before extraction. The leaves were freshly harvested from M. oleifera trees of at least one-year-old and immediately air-dried. All materials were lyophilized and powdered before experiments. The dermatophytes used in this study were obtained from the Food Industry Research and Development Institute (FIRDI) in Taiwan. Trichophyton rubrum (BCRC 32805), Trichophyton mentagrophytes (BCRC 32066), Epidermophyton floccosum (BCRC 30531) and Microsporum canis (BCRC 30541) were maintained by monthly sub-culturing on Sabouraud dextrose agar (SDA) at 28° C.
The anti-fungal assays followed the protocol (document M38-A) of The National Committee for Clinical Laboratory Standards (NCCLS) in the USA. The protocol is a standard method for broth dilution anti-fungal susceptibility testing of filamentous fungi. 100× of the drug (such as ketoconozole; the MICs of this agent tested on the fungi described above were from 0.125 μg/ml to 12.5 μg/ml ) used for the control experiment. […] The minimal inhibitory concentration (MIC), which is defined as the lowest concentration of an anti-microbial agent preventing the visible growth of a microorganism in an agar or broth dilution susceptibility test (numerical score 0), was determined for each test sample.

CC(=O)N1CCN(c2ccc(OCC3COC(Cn4ccnc4)(c4ccc(Cl)cc4Cl)O3)cc2)CC1 (stereo not shown) [ketoconozole, ketoconazole]
MIC (text comparison ketoconozole vs EOF): 0.125 ˜ig/ml
